Experimental data published in US20200046856A1, “METHODS FOR IDENTIFYING MBLAC1-DEPENDENT MOLECULAR NETWORKS” (Florida Atlantic University Board of Trustees, priority 2018, published 2020).
“Also recorded” adds a separate entry of the source.

Key:
human MBLAC1 = target: T1, human MBLAC1 (Homo sapiens, UniProt A4D2B0); assay: Backscattering Interferometry (BSI) binding assay, lysates of T-REx cells expressing human MBLAC1; settings: TET induced vs non-induced T-REx lysates, 5 μM and 50 μM
T1 construct: expressed in transfected cells; host or cells: HEK Flp-In T-REx-293 cells, pcDNA5/FRT/TO, TET-induced, lysate
T1 sequence (A4D2B0 1-266): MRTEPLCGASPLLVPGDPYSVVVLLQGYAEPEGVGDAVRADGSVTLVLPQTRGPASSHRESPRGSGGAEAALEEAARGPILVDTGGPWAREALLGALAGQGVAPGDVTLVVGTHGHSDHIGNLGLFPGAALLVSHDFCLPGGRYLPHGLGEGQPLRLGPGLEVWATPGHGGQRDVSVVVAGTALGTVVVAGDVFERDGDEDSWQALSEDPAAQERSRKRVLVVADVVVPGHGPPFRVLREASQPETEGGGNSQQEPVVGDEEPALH
From the text: Although the pulldown approach provided initial evidence of Cef interactions with MBLAC1, the efficiency of competition was lower than expected, based on prior studies reporting the in vitro potency of Cef for GLT-1 induction. It was reasoned that steric hindrance could limit high-affinity interactions of MBLAC1 with Cef-conjugated beads. As radiolabeled Cef was unavailable, a non-isotopic approach that could examine Cef/MBLAC1 interactions without ligand immobilization was sought. […]
To assess the binding of unlabeled Cef with MBLAC1 in cell and tissue lysates, BSI was utilized. […] RI changes are quantified by comparing fringe shifts between test and reference samples.
Lysates for BSI contained Cef at concentrations of 0 μM, 5 μM, and 50 μM and concentrations of either 300 μg/mL (mouse cell lysates) or 100 μg/mL (human cell lysates and mouse brain lysates) protein. […] To obtain BSI signals, the sample with 0 μM Cef was injected into the channel in a stop-flow manner using a vacuum and allowed to reach temperature and pressure equilibrium (˜10 sec) at which point the phase value (BSI signal) was measured for 20 sec. Specific BSI signal was determined by subtracting Cef only signal from Cef-lysate signals. […]

mouse MBLAC1 = target: T2, mouse MBLAC1 (Mus musculus, UniProt Q8BWY4); assay: Backscattering Interferometry (BSI) binding assay, lysates of T-REx cells expressing mouse MBLAC1; settings: for BSI binding signal: TET induced vs non-induced T-REx lysates, mouse MBLAC1, 5 μM and 50 μM
T2 construct: expressed in transfected cells; host or cells: HEK Flp-In T-REx-293 cells, pcDNA5/FRT/TO, TET-induced, lysate
T2 sequence (Q8BWY4 1-260): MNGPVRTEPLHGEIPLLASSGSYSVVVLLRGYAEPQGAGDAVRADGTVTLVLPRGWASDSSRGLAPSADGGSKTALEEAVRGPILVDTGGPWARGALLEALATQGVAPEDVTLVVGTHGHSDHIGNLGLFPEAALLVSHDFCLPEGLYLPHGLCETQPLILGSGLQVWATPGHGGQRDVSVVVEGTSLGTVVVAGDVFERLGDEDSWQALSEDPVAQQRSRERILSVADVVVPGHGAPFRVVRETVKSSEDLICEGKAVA
From the text: Although the pulldown approach provided initial evidence of Cef interactions with MBLAC1, the efficiency of competition was lower than expected, based on prior studies reporting the in vitro potency of Cef for GLT-1 induction. It was reasoned that steric hindrance could limit high-affinity interactions of MBLAC1 with Cef-conjugated beads. As radiolabeled Cef was unavailable, a non-isotopic approach that could examine Cef/MBLAC1 interactions without ligand immobilization was sought. Backscattering interferometry is a sensitive approach that can detect both kinetic and equilibrium associations of unlabeled, small molecule interactions with unmodified target proteins (Bornhop et al., Science vol. 317, 1732-1736, 2007). […] BSI signals were eliminated by heat denaturation of extracts prior to analysis, consistent with Cef binding as arising from a proteinaceous species versus TET used to induce MBLAC1 expression.
To assess the binding of unlabeled Cef with MBLAC1 in cell and tissue lysates, BSI was utilized. A BSI instrument was assembled and employed (Kussrow et al., Anal Chem 84, 779-792, 2012). Briefly, BSI, using a semi-circular chip, a helium-neon laser, and CCD camera, allows for high-sensitivity, refractive index (RI) sensing. The RI signal is obtained by isolating shifts in the backscattered fringes by Fourier analysis. RI changes are quantified by comparing fringe shifts between test and reference samples.
Lysates for BSI contained Cef at concentrations of 0 μM, 5 μM, and 50 μM and concentrations of either 300 μg/mL (mouse cell lysates) or 100 μg/mL (human cell lysates and mouse brain lysates) protein. Samples were incubated on ice for 1 hr prior to analysis to favor equilibrium binding conditions. To obtain BSI signals, the sample with 0 μM Cef was injected into the channel in a stop-flow manner using a vacuum and allowed to reach temperature and pressure equilibrium (˜10 sec) at which point the phase value (BSI signal) was measured for 20 sec. Specific BSI signal was determined by subtracting Cef only signal from Cef-lysate signals. […]

MBLAC1 [1] = target: T3, MBLAC1 (Mus musculus, UniProt Q8BWY4); assay: BSI binding assay, mouse frontal cortex lysates with and without MBLAC1 immunodepletion
T3 construct: from tissue; host or cells: frontal cortex of wild type C57BL/6J mice, 100,000 x g supernatant
T3 sequence (Q8BWY4 1-260): T2 sequence (Q8BWY4 1-260)
Method: To detect endogenous Cef binding and to determine whether MBLAC1 is likely to be responsible for observed interactions, the BSI experiments were repeated using mouse frontal cortex lysates, with and without prior heat denaturation. To determine whether, and to what degree, Cef binding signals derive from MBLAC1, BSI studies were performed on lysates that had been immunodepleted of MBLAC1 protein by anti-MBLAC1 antibody (#80). […] These findings support the contention that, under these binding conditions, MBLAC1 is likely the primary species in brain lysates capable of interacting with Cef at high-affinity—that the well-replicated actions Cef in the CNS arise through MBLAC1 interactions.
Wild type C57BL/6J mice (Jackson Labs, Bar Harbor, Me.) were rapidly decapitated and frontal cortex was dissected. […] Supernatants were collected, diluted with 2× lysis buffer (40 mM HEPES, 220 mM KCl, 20 mM NaCl, 4 mM MgCl, 10 mM KH2PO4, 500 μM ZnSO4) and protein concentration determined (BCA Protein Assay, ThermoFisher, Waltham, Mass.). […]
To assess the binding of unlabeled Cef with MBLAC1 in cell and tissue lysates, BSI was utilized. […] RI changes are quantified by comparing fringe shifts between test and reference samples. […]

[2] = test system: MBLAC1 WT and MBLAC1 KO mice; assay: Effect of repeated Cef on cocaine-induced locomotion (open field); format: in vivo, mouse; settings: 200 mg/kg IP once daily for 10 days, cocaine 10 mg/kg 24 h later, first 30 min
Method: Animals: All mice were used in accordance with protocols approved by the Florida Atlantic University Institutional Animal Care and Use Committee. Mice were group-housed on a 12 h/12 h light/dark cycle and given ad libitum access to food and water. Breeding was accomplished with mating of heterozygous males with heterozygous females. Male and female mice 11-13 weeks old at the start of the experiment were used in testing the effects of repeated ceftriaxone on response to cocaine in the open field assay. Data from males and females were combined.
Repeated ceftriaxone treatment/acute cocaine administration: MBLAC1 wild-type (WT, MBLAC1^+/+) and knockout mice (MBLAC1^−/−) were used in this experiment. Mice were injected IP once daily for 10 days with 200 mg/kg ceftriaxone (CEF) or saline. Twenty-four hours following the last CEF injection, mice were injected with 10 mg/kg cocaine or saline followed immediately by testing in open field activity chambers (Med Associates, Fairfax, Vt.) for 60 minutes. Locomotor activity was evaluated by photocells in the X, Y and Z dimensions. Horizontal beam breaks, vertical beam breaks, and repetitive movements were recorded and measures, including distance traveled, vertical rearing and stereotypic counts, were calculated. Data were analyzed in 5 min time bins within session, and for the first 30 min following cocaine injection. Data were analyzed by two-way ANOVA repeated measures, with time bin as the repeated measure, or by two-way ANOVA for 30 min cumulated data. At the end of behavior, mice were euthanized by CO2.
The methods were performed essentially as described in Tallarida et al. Neurosci Lett vol. 556, p. 155-159, 2013.

MBLAC1 [3] = assay: Affinity capture of MBLAC1 with Cef-conjugated Sepharose beads, free Cef competition; settings: 50 μM free Cef preincubated with MBLAC1 containing extract; n=6

Kd (mouse MBLAC1; lysate from mouse MBLAC1 expressing cells, Cef 0.78 μM to 50 μM, r2=0.96, read-out: KD for binding (single site binding equation fit to BSI data)) | BSI binding signal in mouse frontal cortex lysate (MBLAC1 [1]; non-depleted lysate, 5 μM and 50 μM) | Mean reduction in MBLAC1 binding to immobilized Cef (MBLAC1 [3]) | SMILES | BSI binding signal (human MBLAC1) | BSI binding signal (mouse MBLAC1) | BSI binding signal in MBLAC1-immunodepleted mouse frontal cortex lysate (MBLAC1 [1]; immunodepleted with MBLAC1 antibody #80) | Effect of Cef pretreatment on cocaine-induced locomotion in MBLAC1 KO mice [2] | Effect of Cef pretreatment on cocaine-induced locomotion in MBLAC1 WT mice [2] | Effect of Cef pretreatment on cocaine-induced locomotion in MBLAC1 KO mice ([2]; listed as CEF) | Effect of Cef pretreatment on cocaine-induced locomotion in MBLAC1 WT mice ([2]; listed as CEF)
2200 nM | shows binding signal with Cef | 52.4±9.3% | CO/N=C(\C(=O)N[C@@H]1C(=O)N2C(C(=O)O)=C(CSc3nc(=O)c(=O)[nH]n3C)CS[C@H]12)c1csc(N)n1 [Cef, ceftriaxone] | significant, dose-dependent BSI signals were detected only in induced cell lysates; also recorded: concentration-dependent, heat-sensitive BSI binding signals | significant, dose-dependent BSI signals were detected only in induced cell lysates; also recorded: concentration-dependent, heat-sensitive BSI binding signals | the Cef binding signal was abolished; also recorded: eliminated Cef binding activity | no ability to attenuate cocaine actions | the locomotor activating effects of cocaine were lost | had no effect on the response to cocaine | completely blocked the effects of cocaine
 |  |  | CC(=O)OCC1=C(C(=O)O)N2C(=O)[C@@H](NC(=O)CCC[C@@H](N)C(=O)O)[C@H]2SC1 [CephC, cephalosporin C] |  | a significant CephC BSI signal (FIG. 3D) was not seen; also recorded: non-significant reduction in BSI signal |  |  |  |  | 
